Results on three compounds are retold here after patent US20070014786A1, “Methods for treating taxol-induced gut disorder” (RINAT NEUROSCIENCE CORP., priority 2003, published 2007).

Series [1] deals with T1, low affinity receptor (LNGFR), p75NTR or p75 (Homo sapiens, UniProt P08138).
T1 sequence (P08138 29-427): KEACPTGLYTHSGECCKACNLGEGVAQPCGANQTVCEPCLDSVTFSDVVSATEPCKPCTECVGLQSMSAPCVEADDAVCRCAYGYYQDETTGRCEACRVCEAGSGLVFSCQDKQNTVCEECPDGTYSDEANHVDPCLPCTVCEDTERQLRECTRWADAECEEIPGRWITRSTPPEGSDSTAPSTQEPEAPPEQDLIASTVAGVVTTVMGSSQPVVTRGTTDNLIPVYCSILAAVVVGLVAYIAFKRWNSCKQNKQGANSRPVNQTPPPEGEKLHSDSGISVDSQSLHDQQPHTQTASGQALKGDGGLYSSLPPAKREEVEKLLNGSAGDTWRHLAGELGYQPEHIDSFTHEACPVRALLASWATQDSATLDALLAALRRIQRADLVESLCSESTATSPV
To be noted: according to current knowledge (background); cited from earlier work.

Series [2] deals with Female Swiss-Webster mice. The series can be described thus: Taxol-induced gut disorder mouse model: intestinal hypertrophy (weight and length of GI tract) and autopsy. The series is classed as in vivo. How it is done: Intestinal hypertrophy was assessed by measuring weight and length of the gastrointestinal (“GI”) tract as follows: animals were sacrificed, and the weight and length of the GI tract was assessed as follows: the entire GI tract was removed, emptied of any contents, and weighed. The GI tract was then separated into stomach, small intestine, and caecum plus large intestine and those parts were individually weighed.
Selected animals were sacrificed and subjected to autopsy. […] Ascites production was not observed in control animals.
Intestinal hypertrophy was assessed as described above. […] Ascites production was not observed in control animals.

Series [3] has as its system Female Swiss-Webster mice. The series can be described thus: Taxol-induced gut disorder mouse model: abdominal distension score. Particulars: second experiment; taxol 300, 375 or 450 mg/m^2; scored weekly.
Protocol: Female Swiss-Webster mice, eight weeks old were treated with vehicle alone (control), taxol alone, or agonist anti-trkC mouse monoclonal antibody 2256 (PCT WO 01/98361; Urfer et al. J. Biol. Chem. (1998) 273:5829-5840)) and taxol. Taxol was obtained from Calbiochem and prepared as a 20 mg/kg solution in Cremophor/ethanol (50:50 w/w), which was diluted with saline (1 part Cremophor/ethanol to four parts saline vol:vol), filtered through a 0.1 micron filter and administered intraperitoneally (“IP”) within 30 minutes of preparation. All treatment animals received one round of three taxol or control (vehicle) treatments every other day for three doses, i.e., day 1, 3 and 5 of the protocol. […] Taxol dose was determined on a mg/m^2 basis, using the formula that body surface area (in square cm) equals 10.5 times the weight in grams to the two-thirds power. […]
Taxol-induced gut disorder was assessed by measuring degree and quality of abdominal distension and intestinal hypertrophy after lifting the individual mouse by the tail. Degree and quality of taxol-induced abdominal distension was scored by a blinded observer using the following five point scale: • 0-no noticeable abdominal bulge • 1-slight bulge • 2-distinct bulge (may be full stomach) • 3-fat mouse • 4-definite lumpy abdomen • 5-swollen abdomen […]
Setting [4] is: taxol 450 mg/m^2 (four weeks) or 375 mg/m^2 (six weeks).

As for neurotrophin-3 [NT-3], in series [1], the Kd (in general, the free concentration of one partner at which half of the binding sites on the other are occupied at equilibrium, for simple one-to-one binding) is 2 nM.

For the compound `CC(=O)O[C@H]1C(=O)[C@@]2(C)[C@H]([C@H](OC(=O)c3ccccc3)[C@]3(O)C[C@H](OC(=O)[C@H](O)[C@@H](NC(=O)c4ccccc4)c4ccccc4)C(C)=C1C3(C)C)[C@]1(OC(C)=O)CO[C@@H]1C[C@@H]2O` [taxol, paclitaxel], in series [2] (setting [4]), the “length of the GI tract (FIG. 8)” value is given as “significant decrease” and the “raw weight of the caecum plus large intestine (FIG. 9)” value is “significant increase”. In addition, in series [2] (taxol 450 mg/m^2, four weeks), the “weight of the caecum plus large intestine (FIG. 6)” value is reported as “significant increase” and the “weight of the small intestine (FIG. 5)” value was “significant increase”. Moreover, the “weight of the GI tract from stomach through colon (FIG. 4)” value in series [2] (taxol 450 mg/m^2, sacrificed at four weeks) is reported as “significant increase”. The “intestinal obstruction(s) and/or stool softening or diarrhea” value in series [2] (taxol-treated animals at autopsy) is listed as “exhibited intestinal obstruction(s) and/or stool softening or diarrhea”. In addition, in series [2] (taxol-treated animals with abdominal distension, not observed in control animals), the “ascites in the peritoneum at autopsy” value is listed as “Production of ascites in the peritoneum was noted”. The “gut distension (FIG. 2)” value in series [3] was “resulted in gut distension”.

On to nerve growth factor [NGF], for which the dissociation constant Kd in series [1] was 2 nM.
